Experiments:
PPARγ [1] = molecular target: T1, PPARγ (Mus musculus, UniProt P37238); experiment: GAL4-UAS luciferase transactivation assay in HEK293T/[…] cells; type: cell-based
T1 construct: gene Pparg
T1 sequence (P37238 193-505): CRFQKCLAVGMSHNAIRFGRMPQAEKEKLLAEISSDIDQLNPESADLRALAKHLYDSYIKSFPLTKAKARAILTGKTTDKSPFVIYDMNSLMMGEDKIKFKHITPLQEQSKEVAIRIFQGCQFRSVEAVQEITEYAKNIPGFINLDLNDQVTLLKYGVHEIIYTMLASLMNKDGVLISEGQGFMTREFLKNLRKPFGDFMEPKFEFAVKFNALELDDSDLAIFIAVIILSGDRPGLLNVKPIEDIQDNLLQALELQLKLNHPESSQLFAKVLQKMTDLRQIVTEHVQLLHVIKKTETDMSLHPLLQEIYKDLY

PPARγ [2] = molecular target: T2, PPARγ (Homo sapiens, UniProt P37231); experiment: competitive TR-FRET binding assay (terbium donor, Fluormone Green tracer displacement)
T2 construct: gene PPARG
T2 sequence (P37231 231-505 limits assumed): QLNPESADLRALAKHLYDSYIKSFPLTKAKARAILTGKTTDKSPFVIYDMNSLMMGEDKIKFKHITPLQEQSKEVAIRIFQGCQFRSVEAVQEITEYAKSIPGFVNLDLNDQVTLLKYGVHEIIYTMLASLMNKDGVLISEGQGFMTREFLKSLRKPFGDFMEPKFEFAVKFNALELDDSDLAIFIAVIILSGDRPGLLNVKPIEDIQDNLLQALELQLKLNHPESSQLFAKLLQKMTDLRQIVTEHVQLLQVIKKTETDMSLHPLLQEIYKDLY

CCCCC(CC)COC(=O)CC(C(=O)OCC(CC)CCCC)S(=O)(=O)O (centres unmarked) [DOSS]
GAL4-UAS luciferase transactivation assay in HEK293T/17 cells (PPARγ [1]): DOSS alone elicited dose-dependent increases in PPARγ-driven luciferase expression in the low ppm range | Kd (PPARγ [2]): 1380 nM

Source: article PMC4710608 (Environmental Health Perspectives, 2015)
